Reference: ChEMBL document CHEMBL1152059, “Novel inhibitors of influenza sialidases related to zanamivir. Heterocyclic replacements of the glycerol sidechain” (Bioorg Med Chem Lett, 1997)

Target: Neuraminidase (Influenza A virus (A/Puerto Rico/8/1934(H1N1)), UniProt P03468)
Experiment: Inhibitory activity against influenza A virus sialidase

Compound | IC50 [µM]
CCCn1nc(Cc2ccccc2)nc1[C@@H]1OC(C(=O)OC(c2ccccc2)c2ccccc2)=C[C@H](NC(=O)OC(C)(C)C)[C@H]1NC(C)=O | 0.07
CC(=O)N[C@@H]1[C@@H](N)C=C(C(=O)O)O[C@H]1c1nc(C)no1 | 23
CC(=O)N[C@@H]1[C@@H](N)C=C(C(=O)O)O[C@H]1c1nc(Cc2ccccc2)no1 | 99
CC(=O)N[C@@H]1[C@@H](NC(=O)OC(C)(C)C)C=C(C(=O)OC(c2ccccc2)c2ccccc2)O[C@H]1c1nnc(Cc2ccccc2)[nH]1 | 87
CC(=O)N[C@@H]1[C@@H](N)C=C(C(=O)O)O[C@H]1c1nc(-c2ccccc2)no1 | 14
CCCn1nc([C@@H]2OC(C(=O)OC(c3ccccc3)c3ccccc3)=C[C@H](NC(=O)OC(C)(C)C)[C@H]2NC(C)=O)nc1Cc1ccccc1 | 12
CCCCc1nnc([C@@H]2OC(C(=O)O)=C[C@H](N)[C@H]2NC(C)=O)n1CCC | 0.33
CCCCc1noc([C@@H]2OC(C(=O)O)=C[C@H](N)[C@H]2NC(C)=O)n1 | 56
